Source: PubChem BioAssay (NCI)
Values joined by “and” are separate entries in the source; they are usually repeats but may differ in a detail not shown here. Equal values may be shown once.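 Values below derive from 48-hour exposures of cells grown in 96-well plates, with endpoints linearly interpolated between the two concentrations bracketing the appropriate inhibition level. GI50 is the concentration that inhibits growth by half. TGI denotes the concentration required for complete inhibition of growth.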

What was measured:
Experiment in all cases: NCI anticancer screen, dose series, 48 h
SF-539 CNS = system: SF-539 CNS
UO-31 renal = system: UO-31 renal
SK-MEL-28 melanoma = system: SK-MEL-28 melanoma
HCC-2998 colon = system: HCC-2998 colon
HCT-116 colon = system: HCT-116 colon
OVCAR-3 ovarian = system: OVCAR-3 ovarian
LOX IMVI melanoma = system: LOX IMVI melanoma
SN12C renal = system: SN12C renal
MALME-3M melanoma = system: MALME-3M melanoma
NCI-H460 lung = system: NCI-H460 lung

## COc1ccc(OC)c2cc(C3(C)SCCCS3)ccc12
SF-539 CNS
  TGI: > 100 µM
UO-31 renal
  TGI: > 100 µM
SK-MEL-28 melanoma
  TGI: > 100 µM
HCC-2998 colon
  TGI: > 100 µM
HCT-116 colon
  TGI: > 100 µM
OVCAR-3 ovarian
  TGI: > 100 µM
LOX IMVI melanoma
  TGI: > 100 µM
SN12C renal
  TGI: > 100 µM
MALME-3M melanoma
  TGI: > 100 µM
NCI-H460 lung
  TGI: > 100 µM

## O=C1/C(=C/C(Cl)=C/c2ccccc2)SC(=S)N1CCc1ccc(O)cc1
SF-539 CNS
  GI50: 1720 nM
  TGI: 3.52 µM
UO-31 renal
  GI50: 1290 nM
  TGI: 2.69 µM
SK-MEL-28 melanoma
  GI50: 1830 nM
  TGI: 3.93 µM
HCC-2998 colon
  GI50: 1910 nM
  TGI: 3.72 µM
HCT-116 colon
  GI50: 1010 nM
  TGI: 3.55 µM
OVCAR-3 ovarian
  GI50: 1910 nM
  TGI: 4.34 µM
LOX IMVI melanoma
  GI50: 1270 nM
  TGI: 2.74 µM
SN12C renal
  GI50: 1510 nM
  TGI: 4.12 µM
MALME-3M melanoma
  GI50: 1440 nM
  TGI: 3 µM
NCI-H460 lung
  GI50: 2.08 µM
  TGI: 4.72 µM

## O=C1/C(=C/c2ccc(Cl)cc2)CN(C(=O)C(Cl)Cl)C/C1=C\c1ccc(Cl)cc1
SF-539 CNS
  GI50: 194 nM
  TGI: 0.467 µM
UO-31 renal
  GI50: 156 nM
  TGI: 0.3 µM
SK-MEL-28 melanoma
  GI50: 227 nM
  TGI: 0.517 µM
HCC-2998 colon
  GI50: 182 nM
  TGI: 0.345 µM
HCT-116 colon
  GI50: 33.6 nM
  TGI: 0.13 µM
OVCAR-3 ovarian
  GI50: 151 nM
  TGI: 0.407 µM
LOX IMVI melanoma
  GI50: 32.1 nM
  TGI: 0.121 µM
SN12C renal
  GI50: 203 nM
  TGI: 0.541 µM
MALME-3M melanoma
  GI50: 230 nM
  TGI: 0.759 µM
NCI-H460 lung
  GI50: 0.274 µM
  TGI: 0.822 µM

## C=CCN(N=O)C(=O)N(CCC)CCCCC(NC(C)=O)C(=O)NCc1ccccc1 (stereo not drawn)
SF-539 CNS
  TGI: > 100 µM
UO-31 renal
  TGI: > 100 µM
SK-MEL-28 melanoma
  TGI: > 100 µM
OVCAR-3 ovarian
  TGI: > 100 µM
LOX IMVI melanoma
  TGI: > 100 µM
SN12C renal
  TGI: > 100 µM
MALME-3M melanoma
  TGI: > 100 µM
NCI-H460 lung
  TGI: > 100 µM

## CSC(=S)NNC(=O)c1ccncc1
SF-539 CNS
  TGI: 48.9 µM
UO-31 renal
  TGI: 31.6 µM
SK-MEL-28 melanoma
  TGI: 44 µM
HCC-2998 colon
  TGI: 38.1 µM
HCT-116 colon
  TGI: 38.3 µM
OVCAR-3 ovarian
  TGI: 51.3 µM
LOX IMVI melanoma
  TGI: 33.6 µM
SN12C renal
  TGI: 41.4 µM
MALME-3M melanoma
  TGI: 35.3 µM
NCI-H460 lung
  TGI: > 100 µM

## O=C(C=Nc1ccccc1C(=O)[O-])c1cccs1.O=C(C=Nc1ccccc1C(=O)[O-])c1cccs1.[Cu+2]
UO-31 renal
  TGI: > 100 µM
SK-MEL-28 melanoma
  TGI: > 100 µM
HCC-2998 colon
  TGI: > 100 µM
HCT-116 colon
  TGI: > 100 µM
OVCAR-3 ovarian
  TGI: > 100 µM
LOX IMVI melanoma
  TGI: > 100 µM
SN12C renal
  TGI: > 100 µM
MALME-3M melanoma
  TGI: > 100 µM
NCI-H460 lung
  TGI: > 100 µM

## COC(=O)C1=CC2OC1(C)C1(CC1)C2=O (stereo not drawn)
SF-539 CNS
  TGI: 32.1 µM
UO-31 renal
  TGI: 50 µM
HCC-2998 colon
  TGI: 34.2 µM
HCT-116 colon
  TGI: 27.8 µM
OVCAR-3 ovarian
  TGI: 31.2 µM
LOX IMVI melanoma
  TGI: 28.5 µM
SN12C renal
  TGI: 31 µM
MALME-3M melanoma
  TGI: 27.8 µM
NCI-H460 lung
  TGI: 48.4 µM

## Clc1ccc(CO/N=C(\Cn2ccnc2)c2ccc(Cl)cc2Cl)c(Cl)c1
SF-539 CNS
  GI50: 1860 nM
  TGI: 3.34 µM
UO-31 renal
  GI50: 1340 nM
  TGI: 2.79 µM
SK-MEL-28 melanoma
  GI50: 1670 nM
  TGI: 3.07 µM
HCC-2998 colon
  GI50: 1730 nM
  TGI: 3.42 µM
HCT-116 colon
  GI50: 1500 nM
  TGI: 3.19 µM
OVCAR-3 ovarian
  GI50: 1660 nM
  TGI: 3.12 µM
LOX IMVI melanoma
  GI50: 1450 nM
  TGI: 3.21 µM
SN12C renal
  GI50: 1440 nM
  TGI: 2.93 µM
MALME-3M melanoma
  GI50: 1660 nM
  TGI: 3.36 µM

## Cn1cnc2c(NCc3ccccc3)nc(NCCO)nc21
SF-539 CNS
  GI50: 36700 nM
  TGI: > 90 µM and 92.7 µM
UO-31 renal
  GI50: 93600 nM
  TGI: > 96.2 µM and 420 µM
SK-MEL-28 melanoma
  GI50: 88700 nM
  TGI: 280 µM
HCC-2998 colon
  GI50: 115000 nM
  TGI: 356 µM
HCT-116 colon
  GI50: 49300 nM
  TGI: > 96.5 µM and 321 µM
OVCAR-3 ovarian
  GI50: 33000 nM and 115000 nM
  TGI: > 406 µM
LOX IMVI melanoma
  GI50: 48400 nM
  TGI: 81.4 µM and > 395 µM
MALME-3M melanoma
  TGI: 241 µM
NCI-H460 lung
  GI50: 77.8 µM
  TGI: 441 µM

## COC(=O)C(=O)C(C(=O)C(=O)Nc1cc([N+](=O)[O-])ccc1[N+](=O)[O-])c1nc2ccc(C(=O)c3ccccc3)cc2[nH]c1=O (stereo not drawn)
SF-539 CNS
  TGI: > 100 µM
UO-31 renal
  TGI: 67.5 µM
HCC-2998 colon
  TGI: > 100 µM
HCT-116 colon
  TGI: > 100 µM
OVCAR-3 ovarian
  TGI: > 100 µM
LOX IMVI melanoma
  TGI: > 100 µM
SN12C renal
  TGI: > 100 µM
MALME-3M melanoma
  TGI: > 100 µM
NCI-H460 lung
  TGI: > 100 µM

## CC1OC(O)CC(OC(=O)c2ccccc2)C1OC(=O)c1ccccc1 (stereo not drawn)
SF-539 CNS
  TGI: 31.7 µM
SK-MEL-28 melanoma
  TGI: 29.6 µM
HCC-2998 colon
  TGI: > 100 µM
HCT-116 colon
  TGI: 23.3 µM
OVCAR-3 ovarian
  TGI: 33.4 µM
LOX IMVI melanoma
  TGI: 23.1 µM
SN12C renal
  TGI: 32.3 µM
MALME-3M melanoma
  TGI: 30.2 µM
NCI-H460 lung
  TGI: > 100 µM

## CC1(C)C2CCC13C(=O)C1OC3(C2)C2C(=O)c3c(O)ccc(O)c3C(=O)C12 (stereo not drawn)
SF-539 CNS
  GI50: 48000 nM
  TGI: > 100 µM
UO-31 renal
  GI50: 40500 nM
  TGI: > 100 µM
SK-MEL-28 melanoma
  GI50: 36000 nM
  TGI: > 100 µM
HCC-2998 colon
  GI50: 42900 nM
  TGI: > 100 µM
HCT-116 colon
  GI50: 34900 nM
  TGI: > 100 µM
LOX IMVI melanoma
  GI50: 32200 nM
  TGI: > 100 µM
SN12C renal
  GI50: 16300 nM
  TGI: 35.7 µM
MALME-3M melanoma
  GI50: 18300 nM
  TGI: 50.6 µM
NCI-H460 lung
  GI50: 36.8 µM
  TGI: > 100 µM

## C/C(=C\c1ccn(-c2ccc(N)cc2)n1)[C@@H]1C[C@@H]2O[C@]2(C)CCC[C@H](C)[C@H](O)[C@@H](C)C(=O)C(C)(C)[C@@H](O)CC(=O)O1
SF-539 CNS
  GI50: 70.2 nM
  TGI: 0.357 µM
UO-31 renal
  GI50: 251 nM
  TGI: > 50 µM
HCC-2998 colon
  GI50: 38.2 nM
  TGI: > 50 µM
HCT-116 colon
  GI50: 18.9 nM
  TGI: > 50 µM
OVCAR-3 ovarian
  GI50: 17.5 nM
  TGI: 1.6 µM
LOX IMVI melanoma
  GI50: 27.3 nM
  TGI: > 50 µM
SN12C renal
  GI50: 201 nM
  TGI: > 50 µM
MALME-3M melanoma
  GI50: 125 nM
  TGI: > 50 µM
NCI-H460 lung
  GI50: 0.0202 µM
  TGI: > 50 µM

## COC(=O)C1=CC2OC13CC1CCC3(C2=O)C1(C)C (stereo not drawn)
SF-539 CNS
  TGI: 27.3 µM
UO-31 renal
  TGI: 19.1 µM
HCC-2998 colon
  TGI: 27.8 µM
HCT-116 colon
  TGI: 23.5 µM
OVCAR-3 ovarian
  TGI: 20 µM
SN12C renal
  TGI: 26.4 µM
MALME-3M melanoma
  TGI: 28.5 µM
NCI-H460 lung
  TGI: > 100 µM

## COC1CC2CCC(C)[C@](O)(O2)C(=O)C(=O)N2CCCCC2C(=O)OC(C(C)CC2CCC(O)C(OC)C2)CC(=O)C(C)C=C(C)C(OC(=O)CN(C)C)C(OC)C(=O)C(C)CC(C)/C=C/C=C/C=C\1C (stereo partly drawn)
SF-539 CNS
  TGI: 12.7 µM
UO-31 renal
  TGI: 5.27 µM
SK-MEL-28 melanoma
  TGI: 20.7 µM
HCT-116 colon
  TGI: 22.2 µM
OVCAR-3 ovarian
  TGI: 22 µM
LOX IMVI melanoma
  TGI: 16.7 µM
SN12C renal
  TGI: 18.7 µM
MALME-3M melanoma
  TGI: 20.4 µM
NCI-H460 lung
  TGI: 21.7 µM

## Nc1ccn([C@@H]2C=C(CO)[C@@H](O)[C@H]2O)c(=O)n1
SF-539 CNS
  TGI: 266 µM and > 625 µM
SK-MEL-28 melanoma
  TGI: 500 µM and > 625 µM
OVCAR-3 ovarian
  TGI: 500 µM and > 625 µM
NCI-H460 lung
  TGI: 2.27 µM and 9.48 µM and 8.82 µM

## CCN(CC)CCOc1cc2c(C(=O)OC)c(C)oc2cc1C(C)=O
UO-31 renal
  GI50: 22500 nM
  TGI: > 100 µM
HCC-2998 colon
  GI50: 15700 nM
  TGI: 29.3 µM
OVCAR-3 ovarian
  GI50: 45100 nM
  TGI: > 100 µM
LOX IMVI melanoma
  GI50: 10200 nM
  TGI: 22 µM
SN12C renal
  GI50: 1640 nM
  TGI: 6.54 µM
NCI-H460 lung
  GI50: 29.9 µM
  TGI: 91.8 µM
